Laboratory results published in PubChem BioAssay AID1189 (EPA DSSTox, 2008).
Active and inactive are the calls of the source.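 How the source made its calls: active means a tumor-causing dose value with its tumor site reported for any sex and species group of a rodent or other animal cancer study; inconclusive means only studies judged inadequate by the national testing program; inactive means tested in at least one study, none positive.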 Peptide text beside a SMILES is read from it.

Assay: DSSTox (CPDBAS) Carcinogenic Potency Database Summary SingleCellCall Results
Conditions: animal chronic carcinogenicity bioassays, CPDB summary call
In short: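 Literature-derived summary: each substance receives an overall carcinogenic/non-carcinogenic category drawn from long-term bioassays in rats, mice, hamsters, dogs or primates, using the most positive sex-species experiment and minimal evidence criteria.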

SMILES | outcome
Cc1ccc(C)c(C)c1 | active
O=C1O[C@H]([C@H](O)CO)C(O)=C1O | inactive; active
CN1C(=O)OC(C)(C)C1=O | inactive
CCOc1ccc2c(c1)C(C)=CC(C)(C)N2 | inactive; active
CC(C)C/C=N/N(C)C=O | active
C=CCN(N=O)C(N)=O | active
COc1cc2c(c3oc(=O)c4c(c13)CCC4=O)C1C=COC1O2 (stereo not given) | active
C[C@]12CC[C@H]3C(=CCc4cc(OS(=O)(=O)O)ccc43)[C@@H]1CCC2=O | inactive; active
COP(=O)(OC)OC | active
CCN(Cc1cccc(S(=O)(=O)O)c1)c1ccc(C(=C2C=CC(=[N+](CC)Cc3cccc(S(=O)(=O)[O-])c3)C=C2)c2ccc(S(=O)(=O)O)cc2)cc1 | active
Cc1c(-c2cnccn2)ssc1=S | inactive; active
CC(C)C(C(=O)OC(C#N)c1cccc(Oc2ccccc2)c1)c1ccc(Cl)cc1 (stereo not given) | inactive
COc1ccc([N+](=O)[O-])cc1N=Nc1c(O)c(C(=O)Nc2cccc([N+](=O)[O-])c2)cc2ccccc12 | inactive; active
CC(=O)Nc1ccc(-c2ccccc2)cc1O | inactive; active
Cc1ccc(N=Nc2c(O)c(S(=O)(=O)O)cc3ccc(S(=O)(=O)O)cc23)c(C)c1 | active; inactive
Cc1cc(N=Nc2ccccc2C)ccc1N | active
OC[C@@H](O)[C@@H](O)[C@H](O)[C@H](O)CO | inactive
O=NN1CCCC1c1cccnc1 (stereo not given) | active
ClCC(Cl)(Cl)Cl | active; inactive
Cc1cc(C)c(S(=O)(=O)O)cc1N=Nc1cc(S(=O)(=O)O)c2ccccc2c1O | active
COc1c2occc2cc2ccc(=O)oc12 | active
CC[C@H]1OC(=O)C[C@@H](O)[C@H](C)[C@@H](O[C@@H]2O[C@H](C)[C@@H](O[C@H]3C[C@@](C)(O)[C@@H](O)[C@H](C)O3)[C@H](N(C)C)[C@H]2O)[C@@H](CC=O)C[C@@H](C)C(=O)/C=C/C(C)=C/C1CO[C@@H]1O[C@H](C)[C@@H](O)[C@@H](OC)[C@H]1OC (stereo not given in full) | inactive
Cc1cc(C)c(N)cc1C | active
C=C(C)C | active

SMILES | outcome
O=S(=O)(O)c1cc(S(=O)(=O)O)c2c(N=Nc3ccc(S(=O)(=O)O)c4ccccc34)c(O)ccc2c1 | active; inactive
O=CCBr | inactive; active
CCCCNNCCCC | active; inactive
O=C(O)CCCC/C=C(\c1ccccc1)c1cccnc1 | inactive; active
CCOc1ccc(NC(N)=O)cc1 | active
CCCCCCCCCCCCCCN(C)N=O | active
CN(N=O)C(=O)Nc1nc2ccccc2s1 | active
CC(C)C[C@H]1C(=O)N2CCC[C@H]2[C@]2(O)O[C@](NC(=O)[C@@H]3C=C4c5cccc6[nH]c(Br)c(c56)C[C@H]4N(C)C3)(C(C)C)C(=O)N12 | active
S=C(SSSSSSC(=S)N1CCCCC1)N1CCCCC1 | inactive
O=S(=O)(O)c1cc(S(=O)(=O)O)c2c(N=Nc3ccccc3)c(O)ccc2c1 | inactive
Cc1cc2ncccc2c2nc(N)n(C)c12 | active
CCCCOC(=O)c1ccccc1C(=O)OCc1ccccc1 | active
CNc1ncnc2c1ncn2[C@@H]1O[C@H](CO)[C@@H](O)[C@H]1O | inactive; active
CCCCCCCC/C=C\CCCCCCCC(=O)O | inactive
COc1ccccc1[N+](=O)[O-] | active
Clc1cc(Cl)cc(-c2cc(Cl)cc(Cl)c2)c1 | inactive
CCN(Cc1cccc(S(=O)(=O)O)c1)c1ccc(C(=C2C=CC(=[N+](CC)Cc3cccc(S(=O)(=O)[O-])c3)C=C2)c2ccccc2)cc1 | active
ClCCl | active
O.O.O.O.O.O.O.O=S(=O)([O-])[O-].[Co+2] | active
CCCC/C=N/N(C)C=O | active
CNC(=O)Oc1cccc2ccccc12 | active
Cn1cc(C(=O)[C@@H]2CCc3nc[nH]c3C2)c2ccccc21 | inactive; active
CC(=O)Nc1ccc(S(=O)(=O)O)c2cc(S(=O)(=O)O)c(N=Nc3ccc(N=Nc4ccc(S(=O)(=O)O)cc4)c4ccc(S(=O)(=O)O)cc34)c(O)c12 | inactive; active
CCCCCN(N=O)C(N)=O | active

SMILES | outcome
C=CCNN | active
ClC1=C(Cl)C2(Cl)C3C(Cl)C=CC3C1(Cl)C2(Cl)Cl (stereo not given) | active
Nc1ccc([N+](=O)[O-])cc1 | inactive; active
O=C(C1CCCCC1)N1CC(=O)N2CCc3ccccc3C2C1 (stereo not given) | inactive
CN(C)CCC(c1ccc(Cl)cc1)c1ccccn1 (stereo not given) | inactive
O=[N+]([O-])O | inactive; active
C[C@@H]1CC2(O[C@@H]2C)C(=O)O[C@@H]2CCN(C)C/C=C(/COC(=O)[C@]1(C)O)C2=O (stereo not given in full) | active; inactive
NC(=O)NC1NC(=O)NC1=O (stereo not given) | inactive
O=S1OCC2C(CO1)C1(Cl)C(Cl)=C(Cl)C2(Cl)C1(Cl)Cl (stereo not given) | inactive; active
CCNN | active
BrC(Br)Br | active; inactive
CCCCOC(=O)COc1ccc(Cl)cc1Cl | inactive
COS(C)(=O)=O | active; inactive
OO | active; inactive
C[C@@H]1CCC[C@H](C)N1CCCC(O)(c1ccccc1)c1ccccn1 (stereo not given in full) | inactive; active
O=[N+]([O-])c1ccc(Nc2ccc(Nc3ccccc3)c(S(=O)(=O)O)c2)c([N+](=O)[O-])c1 | active; inactive
Nc1ccc(N)cc1 | inactive
O=C(O)c1ccccc1-c1c2cc(I)c(=O)c(I)c-2oc2c(I)c(O)c(I)cc12 | inactive
c1ccc(C2CO2)cc1 (stereo not given) | active
CNC(=O)O/N=C(\SC)C(=O)N(C)C | inactive
CC(=O)C(N=Nc1ccc(Cl)cc1Cl)C(=O)Nc1ccc(-c2ccc(NC(=O)C(N=Nc3ccc(Cl)cc3Cl)C(C)=O)c(C)c2)cc1C (stereo not given) | inactive
Cl[C@H]1OCCO[C@@H]1Cl | inactive
Nc1cccc2c(N)cccc12 | active
NC(N)=NC(N)=NCCc1ccccc1 | inactive

SMILES | outcome
CCOc1ccc(NC(C)=O)cc1N | active
CN(C)C(=S)SC(=S)N(C)C | inactive
O=[N+]([O-])c1ccc(Cl)cc1 | active
[O]=[Bi] | inactive; active
Cn1cnc([N+](=O)[O-])c1Sc1ncnc2nc[nH]c12 | active
COc1cccc(O)c1O | active
CCN(CC)C(C)=O | active
CC(=O)Nc1ccc(S(=O)(=O)c2ccc(NC(C)=O)cc2)cc1 | active; inactive
CC(C)(C)NC[C@H](O)COc1cccc2c1CCCC2=O | inactive
COC(=O)C(c1ccccc1)C1CCCCN1N=O (stereo not given) | inactive
CCCCCCCCCCCCC(=O)COC1=C(O)C(=O)O[C@@H]1[C@@H](O)CO | inactive
O=C(O)CC[N+](=O)[O-] | inactive; active
Oc1cc2c(cc1O)[C@H]1c3ccc(O)c(O)c3OC[C@@]1(O)C2 | active
NCCCCCCCCCCC(=O)O | active
ClC1=C(Cl)[C@]2(Cl)[C@@H]3[C@@H]4C[C@@H]([C@H]5O[C@@H]45)[C@@H]3[C@@]1(Cl)C2(Cl)Cl | active
C=CC=C | active; inactive
ClCOCC(COCCl)OCCl | active
CC(=O)N[C@@H](CC(C)C)C(=O)N[C@@H](CC(C)C)C(=O)N[C@H](C=O)CCCN=C(N)N | active; inactive
CCCCC1C(=O)N(c2ccccc2)N(c2ccccc2)C1=O | active; inactive
CC(=O)Oc1c(C)c(C)c2c(c1C)CCC(C)(CCCC(C)CCCC(C)CCCC(C)C)O2 (stereo not given) | inactive
CC(C)(C)c1cc([N+](=O)[O-])cc([N+](=O)[O-])c1OS(C)(=O)=O | inactive
Nc1ccc(Nc2ccccc2)cc1 | inactive
Nc1cc(S(=O)(=O)[O-])cc2cc(S(=O)(=O)[O-])c(N=Nc3ccc(-c4ccc(N=Nc5c(S(=O)(=O)[O-])cc6cc(S(=O)(=O)[O-])cc(N)c6c5O)c(O)c4)cc3O)c(O)c12.[Cu].[Cu].[Na+].[Na+].[Na+].[Na+] | active; inactive
C=CCc1ccc2c(c1)OCO2 | active

SMILES | outcome
C=CCOCC1CO1 (stereo not given) | active
CN(N=O)C(=O)c1ccccc1 | active; inactive
CCCCCC(N)=O | active
CCC(Br)(CC)C(=O)NC(N)=O | inactive
COC(=O)[C@H](Cc1ccccc1)NC(=O)[C@@H](N)CC(=O)O (H-Asp-Phe-OMe) | inactive
CCOP(=O)=O.CCOP(=O)=O.CCOP(=O)=O.[Al+3] | active; inactive
C=CCN(N)CC=C | active
Cc1cc(C(C)(C)C)c(O)c(C(C)(C)C)c1 | active
CCCCCl | inactive
O=[N+]([O-])c1cccc2cccnc12 | active; inactive
CC(=O)CN(C)N=O | active
ClCOCCCCOCCl | inactive
O=P(=O)O | inactive
NCCCCCC(=O)O | inactive; active
OCCOCCO | active
Cc1cccc(OCC(O)CNC(C)(C)C)c1C (stereo not given) | inactive
O=C1c2ccccc2C(=O)c2c(O)c(O)cc(O)c21 | active
C[N+](C)(C)CCCl | inactive
C=CCc1ccc(O)c(OC)c1 | inactive
Cc1cn([C@H]2C[C@H](N=[N+]=[N-])[C@@H](CO)O2)c(=O)[nH]c1=O | active
C=C(C)C(=O)OC | inactive; active
Cc1cc(Cc2ccc(N)c(C)c2)ccc1N | active
c1ccc(-c2ccccc2)cc1 | inactive; active
CCCCN(N=O)C(N)=O | active
